Assay results from ChEMBL document CHEMBL1201862, “PubChem BioAssay data set” (2004).
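Cells were grown in 96-well plates and exposed to each compound for 48 hours at five concentrations; endpoints were interpolated linearly between bracketing concentrations, or set to the highest concentration if not reached. GI50: concentration for 50% inhibition of growth.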 Active and inactive are the calls of the source. Cut-off read from the data, not from the text of the source: active = GI50 up to about 1.1 µM and inactive = higher.

Assays:
Assay in all cases: NCI anticancer screen, dose series, 48 h
NCI/ADR-RES = system: NCI/ADR-RES
A498 = system: A498
SK-MEL-2 = system: SK-MEL-2
COLO 205 = system: COLO 205
SF-539 = system: SF-539
HOP-62 = system: HOP-62
SW-620 = system: SW-620
KM12 = system: KM12
MDA-N = system: MDA-N
Malme-3M = system: Malme-3M
UACC-257 = system: UACC-257
T47D = system: T47D
NCI-H23 = system: NCI-H23
U-251 = system: U-251
MDA-MB-435 = system: MDA-MB-435
UO-31 = system: UO-31
SK-OV-3 = system: SK-OV-3
NCI-H522 = system: NCI-H522
RPMI-8226 = system: RPMI-8226

Measured: GI50

CC(C)(Oc1ccc(Cl)cc1)C(=O)N(C(=O)N1CCN(c2ccccc2)CC1)c1ccccc1
inactive: NCI/ADR-RES 7.05 µM | A498 84.9 µM | SK-MEL-2 > 100 µM | COLO 205 6.49 µM | SF-539 34.4 µM | HOP-62 > 100 µM | SW-620 8.93 µM | KM12 6.22 µM | MDA-N 62.8 µM | Malme-3M > 100 µM | UACC-257 5.62 µM | T47D 5.48 µM | NCI-H23 8.83 µM | U-251 6.21 µM | MDA-MB-435 16.2 µM | UO-31 11.7 µM | SK-OV-3 > 100 µM | NCI-H522 5.57 µM

O=C(O)[C@@H]1C2CC([C@@H]1C(=O)O)[C@H](N1C(=O)CCC1=O)[C@@H]2Br (stereo partly specified)
inactive: NCI/ADR-RES > 100 µM | A498 > 100 µM | SK-MEL-2 > 100 µM | COLO 205 > 100 µM | SF-539 > 100 µM | HOP-62 > 100 µM | SW-620 > 100 µM | KM12 > 100 µM | RPMI-8226 > 100 µM | MDA-N > 100 µM | Malme-3M > 100 µM | UACC-257 > 100 µM | T47D > 100 µM | NCI-H23 > 100 µM | U-251 > 100 µM | MDA-MB-435 > 100 µM | UO-31 > 100 µM | SK-OV-3 > 100 µM | NCI-H522 > 100 µM

c1ccc(N/N=N/c2ccc(-c3nc4ccccc4o3)cc2)nc1
inactive: NCI/ADR-RES 35.4 µM | A498 46.3 µM | SK-MEL-2 41.1 µM | COLO 205 20.6 µM | SF-539 55.3 µM | HOP-62 55.8 µM | SW-620 19.3 µM | KM12 37.8 µM | MDA-N 68.7 µM | Malme-3M > 100 µM | UACC-257 29.7 µM | T47D 25.2 µM | NCI-H23 34 µM | U-251 37.9 µM | MDA-MB-435 31 µM | UO-31 26.6 µM | SK-OV-3 35.4 µM | NCI-H522 43 µM

Nc1c(Br)cc(-c2nc3ccccc3s2)cc1Br
inactive: NCI/ADR-RES > 100 µM | A498 > 100 µM | SK-MEL-2 > 100 µM | COLO 205 > 100 µM | SF-539 > 100 µM | HOP-62 > 100 µM | SW-620 > 100 µM | KM12 75.7 µM | MDA-N > 100 µM | Malme-3M > 100 µM | UACC-257 > 100 µM | T47D > 100 µM | U-251 > 100 µM | MDA-MB-435 > 100 µM | UO-31 > 100 µM | SK-OV-3 > 100 µM | NCI-H522 > 100 µM

Cc1nnc(S(=O)(=O)c2ccc(/N=N/c3c(N)nc(N)nc3N)cc2)s1
inactive: NCI/ADR-RES > 100 µM | A498 > 100 µM | SK-MEL-2 > 100 µM | COLO 205 > 100 µM | SF-539 > 100 µM | HOP-62 > 100 µM | SW-620 > 100 µM | KM12 > 100 µM | RPMI-8226 > 100 µM | MDA-N > 100 µM | Malme-3M > 100 µM | UACC-257 > 100 µM | T47D > 100 µM | NCI-H23 > 100 µM | U-251 > 100 µM | MDA-MB-435 > 100 µM | UO-31 > 100 µM | SK-OV-3 > 100 µM | NCI-H522 > 100 µM

O=C(O)/C(=C\c1ccccc1)Cc1ccccc1
inactive: NCI/ADR-RES > 100 µM | A498 > 100 µM | SK-MEL-2 > 100 µM | COLO 205 > 100 µM | SF-539 83 µM | HOP-62 > 100 µM | SW-620 > 100 µM | KM12 > 100 µM | RPMI-8226 > 100 µM | MDA-N > 100 µM | Malme-3M > 100 µM | UACC-257 > 100 µM | T47D > 100 µM | NCI-H23 > 100 µM | U-251 > 100 µM | MDA-MB-435 > 100 µM | UO-31 > 100 µM | SK-OV-3 > 100 µM | NCI-H522 > 100 µM

N#Cc1[nH]c(=O)n(-c2ccc(Cl)cc2)c1N
inactive: NCI/ADR-RES > 10 µM | A498 > 10 µM | SK-MEL-2 > 10 µM | COLO 205 > 10 µM | SF-539 > 10 µM | HOP-62 > 10 µM | KM12 > 10 µM | RPMI-8226 > 10 µM | MDA-N > 10 µM | Malme-3M 8.79 µM | UACC-257 > 10 µM | T47D > 10 µM | NCI-H23 > 10 µM | U-251 > 10 µM | MDA-MB-435 > 10 µM | SK-OV-3 > 10 µM | NCI-H522 > 10 µM

CC(C)c1ccc(/C(C(=O)O)=C(\O)C(=O)O)cc1
inactive: NCI/ADR-RES > 100 µM | A498 > 100 µM | SK-MEL-2 > 100 µM | COLO 205 > 100 µM | SF-539 > 100 µM | HOP-62 > 100 µM | SW-620 > 100 µM | KM12 > 100 µM | RPMI-8226 > 100 µM | MDA-N > 100 µM | Malme-3M > 100 µM | UACC-257 > 100 µM | T47D > 100 µM | NCI-H23 > 100 µM | U-251 > 100 µM | MDA-MB-435 > 100 µM | UO-31 > 100 µM | SK-OV-3 > 100 µM | NCI-H522 > 100 µM

COc1ccc(NC(=O)/C(=N\NC(=O)C[n+]2ccccc2)c2c(O)c3ccc(O)cc3oc2=O)c([N+](=O)[O-])c1
inactive: NCI/ADR-RES > 100 µM | A498 75.7 µM | SK-MEL-2 > 100 µM | COLO 205 > 100 µM | SF-539 > 100 µM | SW-620 > 100 µM | KM12 40.1 µM | RPMI-8226 > 100 µM | MDA-N > 100 µM | Malme-3M > 100 µM | UACC-257 > 100 µM | T47D > 100 µM | NCI-H23 > 100 µM | U-251 > 100 µM | MDA-MB-435 > 100 µM | UO-31 > 100 µM | SK-OV-3 > 100 µM | NCI-H522 > 100 µM

O=[N+]([O-])c1ccc(/C=N/n2c(S)nnc2CCc2nnc(S)n2/N=C/c2ccc([N+](=O)[O-])o2)o1
inactive: NCI/ADR-RES 23.8 µM | A498 > 100 µM | SK-MEL-2 18.5 µM | SF-539 41.5 µM | HOP-62 24 µM | SW-620 16.7 µM | KM12 22.8 µM | RPMI-8226 29.4 µM | MDA-N 13.8 µM | UACC-257 22.4 µM | T47D 23.1 µM | NCI-H23 16.7 µM | U-251 20 µM | MDA-MB-435 17.6 µM | UO-31 29.3 µM | SK-OV-3 > 100 µM | NCI-H522 22.2 µM

CCC12CCCN3CCc4c(n(c5ccccc45)C(O)(C(=O)OC)C1)C32 (stereo unspecified)
inactive: NCI/ADR-RES > 100 µM | A498 > 100 µM | SK-MEL-2 > 100 µM | COLO 205 > 100 µM | SF-539 > 100 µM | SW-620 > 100 µM | KM12 > 100 µM | RPMI-8226 > 100 µM | MDA-N > 100 µM | Malme-3M > 100 µM | UACC-257 > 100 µM | T47D > 100 µM | NCI-H23 > 100 µM | U-251 > 100 µM | MDA-MB-435 > 100 µM | UO-31 > 100 µM | SK-OV-3 > 100 µM | NCI-H522 > 100 µM

Fc1ccc(C(=C2CCN(CCc3ccc4[nH]c(=S)[nH]c4c3)CC2)c2ccc(F)cc2)cc1
inactive: NCI/ADR-RES 8.59 µM | A498 8.38 µM | SK-MEL-2 2.7 µM | COLO 205 1.72 µM | SF-539 2.79 µM | HOP-62 15.8 µM | SW-620 2.47 µM | KM12 6.47 µM | RPMI-8226 2.73 µM | MDA-N 1.96 µM | Malme-3M 1.47 µM | T47D 1.92 µM | NCI-H23 5.02 µM | U-251 4.48 µM | MDA-MB-435 1.79 µM | UO-31 2.67 µM | SK-OV-3 18.7 µM | NCI-H522 1.52 µM

C[C@H](CCC(=O)O[C@@H]1CC[C@@]2(C)C(CC[C@H]3[C@@H]4CC[C@H]([C@H](C)CCc5nc6ccccc6[nH]5)[C@@]4(C)CC[C@@H]32)C1)[C@H]1CC[C@H]2[C@@H]3CCC4C[C@H](O)CC[C@]4(C)[C@H]3CC[C@]12C (stereo partly specified)
inactive: NCI/ADR-RES > 100 µM | A498 > 87.5 µM | SK-MEL-2 > 100 µM | COLO 205 > 100 µM | SF-539 > 100 µM | HOP-62 25.7 µM | SW-620 > 100 µM | KM12 > 100 µM | RPMI-8226 > 100 µM | MDA-N > 100 µM | UACC-257 > 100 µM | T47D 5.04 µM | NCI-H23 4.53 µM | U-251 36.7 µM | MDA-MB-435 > 100 µM | UO-31 2.43 µM | SK-OV-3 > 81.5 µM | NCI-H522 3.16 µM

CC1(C)CC(=O)C(=CNc2nc(-c3cccc([N+](=O)[O-])c3)cs2)C(=O)C1
inactive: NCI/ADR-RES 18 µM | A498 13.8 µM | SK-MEL-2 55.8 µM | COLO 205 14.8 µM | SF-539 20.8 µM | HOP-62 19.6 µM | SW-620 11.9 µM | KM12 16.6 µM | RPMI-8226 17.9 µM | MDA-N 17.8 µM | UACC-257 22.5 µM | T47D 18.1 µM | NCI-H23 18.1 µM | U-251 19.6 µM | MDA-MB-435 21.4 µM | UO-31 25.6 µM | SK-OV-3 32.7 µM | NCI-H522 9.04 µM

COC(=O)C1=COC2OC3C(C(C)O)C(=O)OC34C=CC1C24 (stereo unspecified)
inactive: NCI/ADR-RES 25 µM | A498 98.6 µM | SK-MEL-2 31 µM | COLO 205 40.6 µM | SF-539 30.1 µM | SW-620 29.4 µM | KM12 37.2 µM | RPMI-8226 29.1 µM | MDA-N 29.6 µM | Malme-3M 36.6 µM | UACC-257 > 100 µM | T47D 39.4 µM | NCI-H23 80.9 µM | U-251 60 µM | MDA-MB-435 31.6 µM | UO-31 74.6 µM | SK-OV-3 59.7 µM | NCI-H522 14.8 µM
